Laboratory results as given in patent US20250042886A1, “BIS(HETERO)ARYL THIOETHER OXADIAZINES AS FUNGICIDAL COMPOUNDS” (Bayer Aktiengesellschaft, priority 2021, published 2025).

How the values were obtained:
[1] = Measurement of Log P values by HPLC on reversed phase columns (EEC directive 79/831 Annex V.A8); format: physicochemical; settings: Table 1, compounds of formula (I); method [a]: LC-UV, acidic range, 0.1% formic acid in water and acetonitrile
Pyricularia oryzae = assay: microbe, parasite or virus in culture; format: cell-based; settings: 120 h; for inhibition at 20 ppm: read-out: efficacy (inhibition of fungal growth), 20 ppm of active ingredient, liquid culture, 5 days incubation; for inhibition at 50 µM: read-out: efficacy (inhibition of fungal growth), 50 μMol/l of active ingredient, liquid culture, 5 days incubation
[2] = system: Colletotrichum lindemuthianum; assay: Colletotrichum lindemuthianum in vitro cell test; format: cell-based; settings: 144 h, liquid culture, 6 days incubation, read-out: efficacy (inhibition of fungal growth); for inhibition at 20 ppm: 20 ppm of active ingredient; for inhibition at 50 µM: 50 μMol/l of active ingredient
Protocol: (§1) B-7. Colletotrichum lindemuthianum In Vitro Cell Test • Solvent: DMSO • Culture medium: 14.6 g anhydrous D-glucose (VWR), 7.1 g Mycological Peptone (Oxoid), 1.4 g granulated Yeast Extract (Merck), QSP 1 liter • Inoculum: spores suspension Fungicides were solubilized in DMSO and the solution used to prepare the required range of concentrations. […] A spore suspension of C. lindemuthianum was prepared and diluted to the desired spore density. Fungicides were evaluated for their ability to inhibit spores germination and mycelium growth in liquid culture assay. The compounds were added in the desired concentration to the culture medium with spores. After 6 days incubation, fungi-toxicity of compounds was determined by spectrometric measurement of mycelium growth. Inhibition of fungal growth was determined by comparing the absorbance values in wells containing the fungicides with the absorbance in control wells without fungicides.

Botrytis cinerea [3] = assay: Botrytis cinerea in vitro cell test; format: cell-based; settings: 144 h, liquid culture, 6 days incubation, read-out: efficacy (inhibition of fungal growth); for inhibition at 20 ppm: 20 ppm of active ingredient; for inhibition at 50 µM: 50 μMol/l of active ingredient
Protocol: B-9. Botrytis cinerea In Vitro Cell Test • Solvent: DMSO • Culture medium: 1 g KH2PO4 (VWR), 1 g K2HPO4 (VWR), 0.5 g Urea (VWR), 3 g KNO3 (Prolabo), 10 g saccharose (VWR), 0.5 g MgSO4, 7H2O (Sigma), 0.07 g CaCl2, 2H2O (Prolabo), 0.2 mg MnSO4, H2O (Sigma), 0.6 mg CuSO4, 5H2O (Sigma), 7.9 mg ZnSO4, 7H2O (Sigma), 0.1 mg H3BO3 (Merck), 0.14 mg NaMoO4, 2H2O (Sigma), 2 mg thiamine (Sigma), 0.1 mg biotine (VWR), 4 mg FeSO4, 7H2O (Sigma), QSP 1 liter • Inoculum: spore suspension Fungicides were solubilized in DMSO and the solution used to prepare the required range of concentrations. […] A spore suspension of B. cinerea was prepared and diluted to the desired spore density. Fungicides were evaluated for their ability to inhibit spore germination and mycelium growth in liquid culture assay. The compounds were added in the desired concentration to the culture medium with spores. After 6 days incubation, fungi-toxicity of compounds was determined by spectrometric measurement of mycelium growth. Inhibition of fungal growth was determined by comparing the absorbance values in wells containing the fungicides with the absorbance in control wells without fungicides.

Pyrenophora teres = Pyrenophora teres in vitro cell test; format: cell-based; settings: 144 h, liquid culture, 6 days incubation, read-out: efficacy (inhibition of fungal growth); for inhibition at 50 µM: 50 μMol/l of active ingredient
Protocol: as §1, with “B-8. Pyrenophora teres In” for “B-7. Colletotrichum lindemuthianum In”, “Inoculum: spore” for “Inoculum: spores”, “of P. teres” for “of C. lindemuthianum”, “inhibit spore” for “inhibit spores”

Fusarium culmorum = Fusarium culmorum in vitro cell test; format: cell-based; settings: 120 h, 50 μMol/l of active ingredient, liquid culture, 5 days incubation, read-out: efficacy (inhibition of fungal growth)
Protocol: B-10. Fusarium culmorum In Vitro Cell Test • Solvent: DMSO • Culture medium: 1 g KH2PO4 (VWR), 1 g K2HPO4 (VWR), 0.5 g Urea (VWR), 3 g KNO3 (Prolabo), 10 g saccharose (VWR), 0.5 g MgSO4, 7H2O (Sigma), 0.07 g CaCl2, 2H2O (Prolabo), 0.2 mg MnSO4, H2O (Sigma), 0.6 mg CuSO4, 5H2O (Sigma), 7.9 mg ZnSO4, 7H2O (Sigma), 0.1 mg H3BO3 (Merck), 0.14 mg NaMoO4, 2H2O (Sigma), 2 mg thiamine (Sigma), 0.1 mg biotine (VWR), 4 mg FeSO4, 7H2O (Sigma), QSP 1 liter • Inoculum: spores suspension
Fungicides were solubilized in DMSO and the solution used to prepare the required range of concentrations. The final concentration of DMSO used in the assay was ≤1%.
A spore suspension of F. culmorum was prepared and diluted to the desired spore density.
Fungicides were evaluated for their ability to inhibit spore germination and mycelium growth in liquid culture assay. The compounds were added in the desired concentration to the culture medium with spores. After 5 days incubation, fungi-toxicity of compounds was determined by spectrometric measurement of mycelium growth. Inhibition of fungal growth was determined by comparing the absorbance values in wells containing the fungicides with the absorbance in control wells without fungicides.

Botrytis cinerea [4] = assay: In vivo preventive test on Botrytis cinerea (grey mould); settings: 500 ppm of active ingredient, sprayed on young gherkin or cabbage plants 24 h before inoculation, evaluated 4 to 5 days after inoculation, read-out: efficacy
Protocol: The active ingredients were made soluble and homogenized in a mixture of Dimethyl sulfoxide/Acetone//Tween® 80 and then diluted in water to the desired concentration. The young plants of gherkin or cabbage were treated by spraying the active ingredient prepared as described above. Control plants were treated only with an aqueous solution of Acetone/Dimethyl sulfoxide/Tween® 80. After 24 hours, the plants were contaminated by spraying the leaves with an aqueous suspension of Botrytis cinerea spores.

| Structure (SMILES) | chromatographic logP [1] | inhibition at 50 µM [2] | pest or weed control at 500 ppm (Botrytis cinerea [4]) | inhibition at 50 µM (Botrytis cinerea [3]) | also measured |
| --- | --- | --- | --- | --- | --- |
| Cc1ccc(CC2CON=C(c3cc(Cl)nnc3S(=O)(=O)c3cccc(C(F)(F)F)c3)N2)c(C)c1 (racemic) [Compound I-001, (5RS)-3-(6-chloro-3-{[3-(trifluoromethyl)phenyl]sulfonyl}pyridazin-4-yl)-5-(2,4-dimethylbenzyl)-5,6-dihydro-4H-1,2,4-oxadiazine] | 4.24 |  |  |  | inhibition at 20 ppm (Pyricularia oryzae): 90 to 100% |
| COc1cccc(Sc2cnc(Cl)cc2C2=NOC[C@H](Cc3ccc(Cl)cc3Cl)N2)c1 (racemic) [Compound I-002] | 4.51 |  |  |  | inhibition at 20 ppm (Pyricularia oryzae): 70 to 79%; inhibition at 20 ppm [2]: 90 to 100%; inhibition at 20 ppm (Botrytis cinerea [3]): 90 to 100% |
| Cc1ccc(C[C@H]2CON=C(c3c(Sc4cccc(OC(F)(F)F)c4)cnc4ccccc34)N2)c(C)c1 (racemic) [Compound I-025] | 4.73 |  |  |  | inhibition at 20 ppm [2]: 90 to 100%; inhibition at 20 ppm (Botrytis cinerea [3]): 90 to 100% |
| Cc1cccc(Sc2nnc(Cl)cc2C2=NOC[C@@H](Cc3ccc(Cl)cc3Cl)N2)c1 (racemic) [Compound I-028] |  |  |  |  | LogP [1]: 4.56^[a]; inhibition at 20 ppm (Pyricularia oryzae): 70 to 79%; inhibition at 20 ppm [2]: 80 to 89%; inhibition at 20 ppm (Pyrenophora teres; 20 ppm of active ingredient): 90 to 100% |
| COc1cccc(Sc2nnc(Cl)cc2C2=NOC[C@@H](Cc3ccc(Cl)cc3Cl)N2)c1 (racemic) [Compound I-034] | 4.3 |  |  |  | inhibition at 20 ppm (Pyricularia oryzae): 70 to 79%; inhibition at 20 ppm [2]: 90 to 100%; inhibition at 20 ppm (Botrytis cinerea [3]): 90 to 100% |
| Cc1cc([C@H]2CON=C(c3c(Sc4ccccn4)nnc(C)c3C)N2)c(C)s1 (racemic) [Compound I-036] | 2.32 | 90 to 100% |  |  | inhibition at 50 µM (Pyrenophora teres): 70 to 79%; inhibition at 50 µM (Fusarium culmorum): 90 to 100% |
| Cc1ccc([C@H]2CON=C(c3c(Sc4ccc(Cl)c(Cl)c4)nnc4ccccc34)N2)s1 (racemic) [Compound I-038] | 4.04 |  | 70 to 79% | 90 to 100% |  |
| CCOc1cccc(Sc2nnc3ccccc3c2C2=NOC[C@H](c3ccc(C)s3)N2)c1 (racemic) [Compound I-040] | 3.55 | 90 to 100% |  | 70 to 79% | inhibition at 50 µM (Fusarium culmorum): 80 to 89% |
| Cc1ccc([C@@H]2CON=C(c3c(Sc4ccccc4C)nnc(C)c3C)N2)s1 (racemic) [Compound I-045] | 2.94 |  | 80 to 89% | 80 to 89% |  |
| Cc1cc([C@@H]2CON=C(c3c(Sc4cccc(OC(F)(F)F)c4)nnc(C)c3C)N2)c(C)s1 (racemic) [Compound I-047] | 3.83 | 90 to 100% |  |  |  |
| Cc1ccc([C@H]2CON=C(c3c(Sc4ccc(F)cc4F)nnc4ccccc34)N2)s1 (racemic) [Compound I-048] | 3.4 |  | 90 to 100% | 90 to 100% |  |
| Cc1ccc([C@@H]2CON=C(c3c(Sc4cccc(OC(F)(F)F)c4)nnc(C)c3C)N2)s1 (racemic) [Compound I-055] | 3.48 | 90 to 100% | 70 to 79% | 80 to 89% |  |
| CCOc1cccc(Sc2nnc(C)c(C)c2C2=NOC[C@@H](c3ccc(C)s3)N2)c1 (racemic) [Compound I-074] | 3.09 | 90 to 100% |  |  |  |
| Cc1ccc([C@H]2CON=C(c3c(Sc4ccc(C)c(C)c4)nnc4ccccc34)N2)s1 (racemic) [Compound I-080] | 3.76 |  | 90 to 100% | 90 to 100% | inhibition at 50 µM (Pyricularia oryzae): 80 to 89%; inhibition at 50 µM (Fusarium culmorum): 90 to 100% |
| Cc1ccc([C@H]2CON=C(c3c(Sc4ccc(F)c(Cl)c4)nnc(C)c3C)N2)s1 (racemic) [Compound I-083] | 3.26 | 90 to 100% |  | 90 to 100% |  |
| COc1cccc(Sc2nnc(C)c(C)c2C2=NOC[C@@H](c3ccc(C)s3)N2)c1 (racemic) [Compound I-084] | 2.77 | 90 to 100% |  | 70 to 79% |  |
| Cc1ccc([C@H]2CON=C(c3c(Sc4ccc(F)c(F)c4)nnc(C)c3C)N2)s1 (racemic) [Compound I-085] | 2.99 |  | 90 to 100% | 90 to 100% | inhibition at 50 µM (Fusarium culmorum): 70 to 79% |
| Cc1cc([C@@H]2CON=C(c3c(Sc4cccc(C(F)(F)F)c4)nnc(C)c3C)N2)c(C)s1 (racemic) [Compound I-086, (5R,S)-(2,5-dimethyl-3-thienyl)-3-(5,6-dimethyl-3-{[3-(trifluoromethyl)phenyl]sulfanyl}pyridazin-4-yl)-5,6-dihydro-4H-1,2,4-oxadiazine] | 3.72 | 90 to 100% |  | 90 to 100% | inhibition at 50 µM (Pyricularia oryzae): 70 to 79%; inhibition at 50 µM (Pyrenophora teres): 90 to 100% |
| Cc1ccc(Sc2nnc(C)c(C)c2C2=NOC[C@@H](c3cc(C)sc3C)N2)cc1 (racemic) [Compound I-099] | 3.36 | 70 to 79% | 70 to 79% | 80 to 89% |  |
| Cc1ccc([C@@H]2CON=C(c3c(Sc4cccc5ccccc45)nnc4ccccc34)N2)s1 (racemic) [Compound I-102] | 3.8 | 80 to 89% |  | 80 to 89% |  |
| Cc1ccc([C@H]2CON=C(c3c(Sc4ccccc4)nnc(C)c3C)N2)s1 (racemic) [Compound I-117] | 2.69 |  | 90 to 100% | 90 to 100% | inhibition at 50 µM (Fusarium culmorum): 80 to 89% |
| Cc1ccc(Sc2nnc(C)c(C)c2C2=NOC[C@@H](c3ccc(C)s3)N2)c(C)c1 (racemic) [Compound I-126] | 3.28 | 70 to 79% |  |  |  |
| Cc1cccc(Sc2nnc(C)c(C)c2C2=NOC[C@H](c3ccc(C)s3)N2)n1 (racemic) [Compound I-127] | 2.21 |  | 80 to 89% |  |  |
| Cc1ccc([C@H]2CON=C(c3c(Sc4cccc(OC(F)(F)F)c4)nnc4ccccc34)N2)s1 (racemic) [Compound I-133] | 3.92 | 90 to 100% | 90 to 100% | 90 to 100% | inhibition at 50 µM (Pyricularia oryzae): 70 to 79%; inhibition at 50 µM (Fusarium culmorum): 70 to 79% |
